Like-named read-outs stand apart in the source and are kept apart here.
Target: Human PDE4 (PDE4B2 truncated catalytic domain) (Homo sapiens, UniProt Q07343)
Assay: Measurement of Phosphodiesterase 4 (PDE4) inhibition, zinc and barium precipitation method
Format: biochemical
Description: Measurement of Phosphodiesterase 4 (PDE4) Inhibition
Human PDE4 enzymatic activity was assayed using the zinc and barium precipitation method of Saldou, N. et al (1998: Cell Signal, vol 10, No. 6, pp 427-440). The assay was performed in 96-well v-bottom plates (BrandPlates, Wertheim, Germany). PDE4B2 truncated is the catalytic domain including the UCR2 and a portion of the UCR1 domain of PDE4B2 (23.4 mg/mL) from Proteros Biostructures. Final concentration of enzyme in the assay was 0.3 pM. Stocks of the tested compounds were prepared in 100% DMSO at a concentration of 40 mM. The 100-μL reaction volume consisted of 45 mM Tris-HCl, pH 7.5, 12.5 mM MgSO4, 0.3 μM […] (Sigma, St Louis, Mo.) supplemented with 0.2 μM ^3H-cAMP (Perkin Elmer, Waltham, Mass.). Compounds were pre-incubated with enzyme at room temperature for 20 min prior to initiating the reaction by adding substrate (cAMP supplemented with ^3H-cAMP). After incubation at 30° C. for 6 minutes, the reaction was stopped by the addition of 50 μL fresh made 21.5 mM ZnSO4.7H2O (Alfa Aesar, Ward Hill, Mass.) containing 5 mM AMP as a co-precipitant. Total AMP was precipitated by the addition of 50 μL 17.5 mM Ba(OH)2, prepared fresh daily in water. The precipitate was transferred and collected by filtration onto a 96-well GF/B plate (Millipore, Ireland). The plates were washed five times with cold wash solution (1 mM NaOH, 100 mM NaCl) and dried at 65° C. The bottoms of plates were sealed with clear tapes (Millipore Co-operation, Billerica, Mass.) and 40 μL of scintillation cocktail (Perkin Elmer Waltham, Mass.). The plates were top sealed and radioactivity was measured with an Elmer Packard TopCount scintillation counter.

[1] = PDE4B2 truncated, 0.3 pM enzyme, 3H-cAMP substrate, 30° C. 6 minutes, read-out: PDE4 IC50

Sequence of Human PDE4 (PDE4B2 truncated catalytic domain) (Q07343 212-659): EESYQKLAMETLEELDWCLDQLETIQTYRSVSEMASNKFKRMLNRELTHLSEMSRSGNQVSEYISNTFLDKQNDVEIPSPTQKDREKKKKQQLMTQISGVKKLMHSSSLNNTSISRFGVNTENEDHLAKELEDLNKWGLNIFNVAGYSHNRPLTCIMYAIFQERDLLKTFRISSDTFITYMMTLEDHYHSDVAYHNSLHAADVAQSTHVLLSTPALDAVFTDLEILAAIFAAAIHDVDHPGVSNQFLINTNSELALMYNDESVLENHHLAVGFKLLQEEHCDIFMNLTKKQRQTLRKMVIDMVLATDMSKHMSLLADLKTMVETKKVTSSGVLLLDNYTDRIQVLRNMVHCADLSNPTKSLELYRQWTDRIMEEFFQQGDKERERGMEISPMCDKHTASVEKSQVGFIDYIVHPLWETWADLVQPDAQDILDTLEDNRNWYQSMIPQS

IC50 [1] [nM]	Compound	IC50 [nM]
	N#Cc1ccc(C(=O)c2ccc3c(c2)COB3O)cc1 [A, 4-(1-hydroxy-1,3-dihydrobenzo[c][1,2]oxaborole-5-carbonyl)benzonitrile]	504
1730	N#Cc1ccc(C(O)c2ccc3c(c2)COB3O)cc1 (stereo not shown) [B, 4-(hydroxy(1-hydroxy-1,3-dihydrobenzo[c][1,2]oxaborol-5-yl)methyl)benzonitrile]	
1770	N#Cc1ccc(Cc2ccc3c(c2)COB3O)cc1 [C, 4-((1-hydroxy-1,3-dihydrobenzo[c][1,2]oxaborol-5-yl)methyl)benzonitrile]	
62	N#Cc1ccc([S+]([O-])c2ccc3c(c2)COB3O)cc1 (stereo not shown) [D, 4-(1-hydroxy-1,3-dihydrobenzo[c][1,2]oxaborol-5-ylsulfinyl)benzonitrile]	
